Measurements taken from patent US20260226037A1, “MICROTUBULE TARGETING AGENTS” (ARIEL SCIENTIFIC INNOVATIONS LTD., priority 2022, published 2026).
Like-named read-outs stand apart in the source and are kept apart here. Where a SMILES comes first, the peptide text is derived from it. [ ]: non-standard residue; d: D form. The star is where a group is joined. Dolaproine = CO[C@@H]([C@@H]1CCCN1)[C@@H](C)C(=O)O; Dil = CC[C@H](C)[C@H](NC)[C@@H](CC(=O)O)OC; X1 = C[C@@H](N*)[C@@H](O)c1ccccc1; NMeV = CN[C@H](C(=O)O)C(C)C

Columns and labels:
Format in all cases: cell-based
RPMI8226 cells = assay: Cell cycle distribution by flow cytometry; settings: 6 hours; IC50, IC50x2.5 and IC50x5 concentrations
Protocol: Cell cycle arrest is a shared consequence of MTAs treatment. The effects of cell cycle distribution were determined in RPMI8226 cells treated for 6 and 18 hours with a range of concentrations of the molecules. The cells were stained with propidium iodide and cell cycle distribution was measured using a cytoFLEX flow cytometer.

MM1.S cells = assay: XTT cytotoxicity, MM1.S; settings: multiple myeloma, non-resistant, read-out: IC50
Protocol: (§1) The cytotoxic activity of the novel family was evaluated against various tumor cells, including myeloma cells, acute lymphoblastic leukemia cells, acute monocytic leukemia cells, chronic myelogenous leukemia cells, pancreatic cancer cells, breast cancer cells, uterine sarcoma cells, cervix adenocarcinoma cells, ovary cancer cells, melanoma cells, osteosarcoma cells, prostate cancer cells, lung cancer cells, neuroblastoma cells and colorectal adenocarcinoma cells by XTT assay.

RPMI-DOX40 cells = assay: XTT cytotoxicity, RPMI-DOX40; settings: for IC50: RPMI-DOX40, multiple myeloma, P-gp overexpression, read-out: IC50; for IC50 ratio between resistant and non-resistant cells: RPMI-DOX40 / RPMI 8226
Protocol: as §1

MCF7 cells = assay: XTT cytotoxicity, MCF7; settings: MCF7, breast adenocarcinoma, non-resistant
Protocol: as §1

MES-SA/DX5 cells = assay: XTT cytotoxicity, MES-SA/DX5; settings: for IC50: MES-SA/DX5, uterine sarcoma, P-gp overexpression; for IC50 ratio between resistant and non-resistant cells: MES-SA/DX5 / MES-SA; for effectiveness in subline overexpressing PgP: MES-SA/DX5 vs MES-SA
Protocol: as §1

MCF7-VP cells = assay: XTT cytotoxicity, MCF7-VP; settings: for IC50 ratio between resistant and non-resistant cells: MCF7-VP / MCF7; for IC50: MCF7-VP, breast adenocarcinoma, MRP overexpression
Protocol: as §1

RPMI 8226 cells = assay: XTT cytotoxicity, RPMI 8226; settings: RPMI 8226, multiple myeloma, non-resistant, read-out: IC50
Protocol: as §1

[1] = test system: colchicine binding site on tubulin protein; assay: EBI competition assay, RPMI-8226 cells; settings: RPMI-8226 living cells
MES-SA cells = assay: XTT cytotoxicity, MES-SA; settings: poorly differentiated uterine sarcoma, non-resistant
Protocol: as §1

NALM6 cells = assay: XTT cytotoxicity, NALM6; settings: NALM6, acute lymphoblastic leukemia, non-resistant, read-out: IC50
Protocol: as §1
(§2) Most tubulin-binding anticancer drugs currently used in the clinic are substrates for Pgp effux pump. […] The inventors tested the viability of NALM6 acute lymphoblastic leukemia cell line (ALL) and its corresponding doxorubicin resistant N6/ADR cell line that overexpress Pgp glycoprotein and has cross-resistance to vincristine.

RPMI-LR5 cells = assay: XTT cytotoxicity, RPMI-LR5; settings: for IC50: RPMI-LR5, multiple myeloma, melphalan resistant, read-out: IC50; for IC50 ratio between resistant and non-resistant cells: RPMI-LR5 / RPMI 8226
Protocol: as §1

RPMI-MR20 cells = assay: XTT cytotoxicity, RPMI-MR20; settings: for IC50: RPMI-MR20, mitoxantrone resistant, read-out: IC50; for IC50 ratio between resistant and non-resistant cells: RPMI-MR20 / RPMI 8226
Protocol: as §1

N6/ADR cells = assay: XTT cytotoxicity, N6/ADR; settings: for IC50 ratio between resistant and non-resistant cells: N6/ADR / NALM6; for IC50: N6/ADR, acute lymphoblastic leukemia, P-gp overexpression, read-out: IC50; for sensitivity to Pgp glycoprotein overexpression: N6/ADR vs NALM6 dose response
Protocol: as §1, §2

MM1.R cells = assay: XTT cytotoxicity, MM1.R; settings: for IC50 ratio between resistant and non-resistant cells: MM1.R / MM1.S; for IC50: MM1.R, multiple myeloma, dexamethasone resistant, read-out: IC50
Protocol: as §1

A2780 cells = assay: XTT cytotoxicity, A2780; settings: A2780, ovarian carcinoma, non-resistant
Protocol: as §1

A2780ADR cells = assay: XTT cytotoxicity, A2780ADR; settings: for IC50 ratio between resistant and non-resistant cells: A2780ADR / A2780; for IC50: A2780ADR, ovarian carcinoma, resistant
Protocol: as §1

NCI-H69 cells = assay: XTT cytotoxicity, NCI-H69; settings: NCI-H69, small cell lung carcinoma, non-resistant
Protocol: as §1

NCI-H69 VCR/R cells = assay: XTT cytotoxicity, NCI-H69 VCR/R; settings: for IC50 ratio between resistant and non-resistant cells: NCI-H69 VCR/R / NCI-H69; for IC50: NCI-H69 VCR/R, vincristine resistant
Protocol: as §1

Compound	IC50 (RPMI-DOX40 cells)	IC50 ratio between resistant and non-resistant cells (RPMI-DOX40 cells)	IC50 (MES-SA/DX5 cells)	IC50 ratio between resistant and non-resistant cells (MES-SA/DX5 cells)	IC50 ratio between resistant and non-resistant cells (MCF7-VP cells)	IC50 (MES-SA cells)	IC50 (RPMI-LR5 cells)	IC50 ratio between resistant and non-resistant cells (RPMI-LR5 cells)	IC50 ratio between resistant and non-resistant cells (N6/ADR cells)	IC50 (N6/ADR cells)	IC50 ratio between resistant and non-resistant cells (A2780ADR cells)	IC50 ratio between resistant and non-resistant cells (NCI-H69 VCR/R cells)	effectiveness in subline overexpressing PgP (MES-SA/DX5 cells)	sensitivity to Pgp glycoprotein overexpression (N6/ADR cells)	IC50 (A2780 cells; Homo sapiens)	IC50 (A2780ADR cells; A2780 ADR)	IC50 (MCF7 cells; Homo sapiens)	IC50 (MES-SA/DX5 cells; Homo sapiens)	IC50 (MCF7-VP cells; Homo sapiens)	IC50 (NCI-H69 cells; Homo sapiens)	further results
Cc1c(C(=O)OCCCCN)[nH]c2c1C(=O)CC(c1ncco1)C2.Cl.Cl (centres unmarked) [SMS088, 4-ami0butyl-3-methyl-6-(oxazol-2-yl)-4-oxo-4,5,6,7-tetrahydro-1H-indole-2-carboxylate dihydrogen chloride]	1350 nM	0.839	5260 nM	2.391	1.251	2200 nM	1430 nM	0.885	1.107	62 nM	–	–	–	–	–	–	–	–	–	–	cell cycle arrest (RPMI8226 cells): cell cycle arrest in G2M phase; IC50 (MM1.S cells): 1100 nM; IC50 (MCF7 cells): 5840 nM; IC50 (MCF7-VP cells): 7300 nM; IC50 (RPMI 8226 cells): 1610 nM; prevention of covalent binding of EBI to the colchicine binding site [1]: prevented the covalent binding of EBI to the colchicine binding site; IC50 (NALM6 cells): 56 nM; IC50 (RPMI-MR20 cells): > 1800 nM; IC50 ratio between resistant and non-resistant cells (RPMI-MR20 cells): >1.116; IC50 ratio between resistant and non-resistant cells (MM1.R cells): 0.934; IC50 (MM1.R cells): 1020 nM
Epothilone	–	–	187 nM	3.613	2.073	52 nM	–	–	–	–	>370.370	>11.364	–	–	–	–	–	–	–	–	IC50 (A2780 cells): 2.7 nM; IC50 (A2780ADR cells): > 1000 nM; IC50 (MCF7 cells): 220 nM; IC50 (MCF7-VP cells): 456 nM; IC50 (NCI-H69 cells): 88 nM; IC50 (NCI-H69 VCR/R cells): > 1000 nM
CC[C@H](C)[C@@H]([C@@H](CC(=O)N1CCC[C@H]1[C@H](OC)[C@@H](C)C(=O)N[C@H](C)[C@@H](O)c1ccccc1)OC)N(C)C(=O)[C@@H](NC(=O)[C@@H](NC)C(C)C)C(C)C [MMAE, reference compound] (H-[NMeV]V[Dil][Dolaproine]-X1)	> 15 nM	>6.000	2740 nM	165.037	–	16 nM	> 15 nM	>6.000	2.667	0.8 nM	31.250	0.667	less effective in the subline overexpressing PgP	sensitive to PgP	–	–	–	–	–	–	IC50 (A2780 cells): 0.8 nM; IC50 (A2780ADR cells): 25 nM; IC50 (MM1.S cells): < 2.5 nM; IC50 (RPMI 8226 cells): < 2.5 nM; IC50 (NCI-H69 cells): 3 nM; IC50 (NALM6 cells): 0.3 nM; IC50 (NCI-H69 VCR/R cells): 2 nM; IC50 (MM1.R cells): < 2.5 nM
CC(=O)O[C@H]1C(=O)[C@@]2(C)[C@H]([C@H](OC(=O)c3ccccc3)[C@]3(O)C[C@H](OC(=O)[C@H](O)[C@@H](NC(=O)c4ccccc4)c4ccccc4)C(C)=C1C3(C)C)[C@]1(OC(C)=O)CO[C@@H]1C[C@@H]2O [Paqlitaxel, paclitaxel]	–	–	–	>9.009	0.544	–	–	–	2.857	24 nM	61.538	>16.949	less effective in the subline overexpressing PgP	sensitive to PgP	6.5 nM	400 nM	136 nM	> 1000 nM	74 nM	59 nM	IC50 (MES-SA cells; Homo sapiens): 110 nM; IC50 (NALM6 cells; Homo sapiens, NALM-6): 8.4 nM; IC50 (NCI-H69 VCR/R cells; Homo sapiens): > 1000 nM
CCC1=C[C@@H]2CN(C1)Cc1c([nH]c3ccccc13)[C@@](C(=O)OC)(c1cc3c(cc1OC)N(C)[C@H]1[C@@](O)(C(=O)OC)[C@H](OC(C)=O)[C@]4(CC)C=CCN5CC[C@]31[C@@H]54)C2 [Vinorelbine]	–	–	–	>15.625	1.273	–	–	–	–	–	300.000	>45.454	less effective in the subline overexpressing PgP	–	9 nM	2700 nM	22 nM	> 1000 nM	28 nM	22 nM	IC50 (MES-SA cells; Homo sapiens): 64 nM; IC50 (NCI-H69 VCR/R cells; Homo sapiens): > 1000 nM
CC[C@]1(O)C[C@H]2CN(CCc3c([nH]c4ccccc34)[C@@](C(=O)OC)(c3cc4c(cc3OC)N(C=O)[C@H]3[C@@](O)(C(=O)OC)[C@H](OC(C)=O)[C@]5(CC)C=CCN6CC[C@]43[C@@H]65)C2)C1 [Vincristine, reference compound]	> 10 nM	>5.263	–	3.684	2.821	–	> 4 nM	>2.105	10.909	12 nM	77.000	>41.667	less effective in the subline overexpressing PgP	sensitive to PgP	3 nM	231 nM	78 nM	3680 nM	220 nM	24 nM	resistance of cells to treatment (A2780ADR cells; A2780ADR ovary carcinoma cells): resistant to vincristine; IC50 (MM1.S cells; Homo sapiens): 1.6 nM; IC50 (RPMI 8226 cells; Homo sapiens): 1.9 nM; IC50 (MES-SA cells; Homo sapiens): 999 nM; IC50 (NALM6 cells; Homo sapiens, NALM-6): 1.1 nM; IC50 (NCI-H69 VCR/R cells; Homo sapiens): > 1000 nM; resistance of cells to treatment (NCI-H69 VCR/R cells; NCI-H69 VCR/R lung carcinoma cells): resistant to vincristine; IC50 (RPMI-MR20 cells): 0.3 nM; IC50 ratio between resistant and non-resistant cells (RPMI-MR20 cells): 0.158; IC50 ratio between resistant and non-resistant cells (MM1.R cells): 1.063; IC50 (MM1.R cells; MM.1R): 1.7 nM
